Test results from ChEMBL document CHEMBL3525943, “Regiospecific and stereospecific triangulation of the structures of metabolites formed by sequential metabolism at multiple prochiral centers” (Drug Metab Dispos, 2012).
Values belong to the compound of their own block, whether it stands above or below them.

Columns and labels:
Format in all cases: ADME, organism-based
Conditions in all cases: in vivo; call rule not given here
[1] = Drug metabolism in Sprague-Dawley rat urine assessed as formation of (S)-2-((1S,2S,4R,6R)-6-hydroxybicyclo[2.2.1]heptan-2-ylamino)-5-((S)-1-hydroxypropan-2-yl)-5-methylthiazol-4(5H)-one at 2 mg/kg, po measured over 24 hrs by LC-MS/HPLC radiometric analysis; parameters: route oral, dose 2 mg/kg
[2] = Drug metabolism in Sprague-Dawley rat urine assessed as formation of (S)-2-((1S,2S,4R,6R)-6-hydroxybicyclo[2.2.1]heptan-2-ylamino)-5-isopropyl-5-methylthiazol-4(5H)-one at 2 mg/kg, po measured over 24 hrs by LC-MS/HPLC radiometric analysis; parameters: dose 2 mg/kg, route oral
Plasma [3] = assay: Drug metabolism in Sprague-Dawley rat plasma assessed as formation of (S)-2-((1R,2S,4R,5S)-5-hydroxybicyclo[2.2.1]heptan-2-ylamino)-5-isopropyl-5-methylthiazol-4(5H)-one at 2 mg/kg, po measured at 0.5 hrs by LC-MS/HPLC radiometric analysis; parameters: dose 2 mg/kg, route oral
[4] = Drug metabolism in Sprague-Dawley rat urine assessed as formation of (S)-2-((1R,2S,4R,5S)-5-hydroxybicyclo[2.2.1]heptan-2-ylamino)-5-((S)-1-hydroxypropan-2-yl)-5-methylthiazol-4(5H)-one at 2 mg/kg, po measured over 24 hrs by LC-MS/HPLC radiometric analysis; parameters: dose 2 mg/kg, route oral
Plasma [5] = assay: Drug metabolism in Sprague-Dawley rat plasma assessed as formation of (S)-2-((1S,2S,4R)-bicyclo[2.2.1]heptan-2-ylamino)-5-((R)-1-hydroxypropan-2-yl)-5-methylthiazol-4(5H)-one at 2 mg/kg, po measured at 0.5 hrs by LC-MS/HPLC radiometric analysis; parameters: dose 2 mg/kg, route oral
[6] = Drug metabolism in Sprague-Dawley rat feces assessed as formation of (1R,2R,4R,5S)-5-((S)-5-isopropyl-5-methyl-4-oxo-4,5-dihydrothiazol-2-ylamino)bicyclo[2.2.1]heptan-2-yl hydrogen sulfate at 2 mg/kg, po measured over 24 hrs by LC-MS/HPLC radiometric analysis; parameters: dose 2 mg/kg, route oral
Plasma [7] = assay: Drug metabolism in Sprague-Dawley rat plasma assessed as formation of (S)-5-isopropyl-5-methyl-2-((1R,2S,4R)-5-oxobicyclo[2.2.1]heptan-2-ylamino)thiazol-4(5H)-one at 2 mg/kg, po measured at 0.5 hrs by LC-MS/HPLC radiometric analysis; parameters: dose 2 mg/kg, route oral
Plasma [8] = assay: Drug metabolism in Sprague-Dawley rat plasma assessed as formation of (S)-2-((1S,2S,4R)-bicyclo[2.2.1]heptan-2-ylamino)-5-((S)-1-hydroxypropan-2-yl)-5-methylthiazol-4(5H)-one at 2 mg/kg, po measured at 0.5 hrs by LC-MS/HPLC radiometric analysis; parameters: dose 2 mg/kg, route oral
[9] = Drug metabolism in Sprague-Dawley rat urine assessed as formation of (S)-2-((1R,2S,4R,5R)-5-hydroxybicyclo[2.2.1]heptan-2-ylamino)-5-isopropyl-5-methylthiazol-4(5H)-one at 2 mg/kg, po measured over 24 hrs by LC-MS/HPLC radiometric analysis; parameters: dose 2 mg/kg, route oral
[10] = Drug metabolism in Sprague-Dawley rat urine assessed as formation of (S)-2-((1S,2S,4R)-bicyclo[2.2.1]heptan-2-ylamino)-5-((R)-1-hydroxypropan-2-yl)-5-methylthiazol-4(5H)-one at 2 mg/kg, po measured over 24 hrs by LC-MS/HPLC radiometric analysis; parameters: dose 2 mg/kg, route oral
[11] = Drug recovery in urine of Sprague-Dawley rat at 2 mg/kg, po measured over 48 hrs by liquid scintillation counting analysis; parameters: dose 2 mg/kg, route oral
[12] = Drug level in Sprague-Dawley rat feces at 2 mg/kg, po measured over 24 hrs by LC-MS/HPLC radiometric analysis; parameters: dose 2 mg/kg, route oral
[13] = Drug metabolism in Sprague-Dawley rat urine assessed as formation of trihydroxy norbornyl metabolite at 2 mg/kg, po measured over 24 hrs by LC-MS/HPLC radiometric analysis; parameters: dose 2 mg/kg, route oral
[14] = Drug metabolism in Sprague-Dawley rat urine assessed as formation of (S)-2-((1R,2S,4R,5S)-5-hydroxybicyclo[2.2.1]heptan-2-ylamino)-5-(2-hydroxypropan-2-yl)-5-methylthiazol-4(5H)-one at 2 mg/kg, po measured over 24 hrs by LC-MS/HPLC radiometric analysis; parameters: dose 2 mg/kg, route oral
[15] = Drug metabolism in Sprague-Dawley rat feces assessed as formation of trihydroxy norbornyl metabolite at 2 mg/kg, po measured over 24 hrs by LC-MS/HPLC radiometric analysis; parameters: dose 2 mg/kg, route oral
[16] = Drug metabolism in Sprague-Dawley rat urine assessed as formation of (S)-5-isopropyl-5-methyl-2-((1R,2S,4R)-5-oxobicyclo[2.2.1]heptan-2-ylamino)thiazol-4(5H)-one at 2 mg/kg, po measured over 24 hrs by LC-MS/HPLC radiometric analysis; parameters: dose 2 mg/kg, route oral
Plasma [17] = assay: Drug level in Sprague-Dawley rat plasma at 2 mg/kg, po measured at 0.5 hrs by LC-MS/HPLC radiometric analysis; parameters: dose 2 mg/kg, route oral
Plasma [18] = assay: Drug metabolism in Sprague-Dawley rat plasma assessed as formation of (S)-2-((1R,2S,4R,5R)-5-hydroxybicyclo[2.2.1]heptan-2-ylamino)-5-isopropyl-5-methylthiazol-4(5H)-one at 2 mg/kg, po measured at 0.5 hrs by LC-MS/HPLC radiometric analysis; parameters: dose 2 mg/kg, route oral
[19] = Drug metabolism in Sprague-Dawley rat urine assessed as formation of (S)-2-((1R,2S,4R,5S)-5-hydroxybicyclo[2.2.1]heptan-2-ylamino)-5-isopropyl-5-methylthiazol-4(5H)-one at 2 mg/kg, po measured over 24 hrs by LC-MS/HPLC radiometric analysis; parameters: dose 2 mg/kg, route oral
Rattus norvegicus [20] = assay: Total drug recovery in Sprague-Dawley rat at 2 mg/kg, po measured over 48 hrs by liquid scintillation counting analysis; parameters: dose 2 mg/kg, route oral
[21] = Drug level in Sprague-Dawley rat urine at 2 mg/kg, po measured over 24 hrs by LC-MS/HPLC radiometric analysis; parameters: dose 2 mg/kg, route oral
[22] = Drug recovery in feces of Sprague-Dawley rat at 2 mg/kg, po measured over 48 hrs by liquid scintillation counting analysis; parameters: dose 2 mg/kg, route oral
[23] = Drug recovery in bile of bile duct cannulated Sprague-Dawley rat at 5 mg/kg, po measured over 48 hrs by liquid scintillation counting analysis; parameters: dose 5 mg/kg, route oral
[24] = Drug metabolism in Sprague-Dawley rat urine assessed as formation of (S)-2-((1R,2S,4R,5R)-5-hydroxybicyclo[2.2.1]heptan-2-ylamino)-5-((S)-1-hydroxypropan-2-yl)-5-methylthiazol-4(5H)-one at 5 mg/kg, po measured over 24 hrs by LC-MS/HPLC radiometric analysis; parameters: dose 5 mg/kg, route oral
[25] = Drug metabolism in Sprague-Dawley rat urine assessed as formation of (S)-2-((1R,2S,4R,5S)-5-hydroxybicyclo[2.2.1]heptan-2-ylamino)-5-((R)-1-hydroxypropan-2-yl)-5-methylthiazol-4(5H)-one at 5 mg/kg, po measured over 24 hrs by LC-MS/HPLC radiometric analysis; parameters: dose 5 mg/kg, route oral
[26] = Drug metabolism in Sprague-Dawley rat urine assessed as formation of (2S,3S,4S,5R)-3,4,5-trihydroxy-6-((1R,2S,4R,5S)-5-((S)-5-isopropyl-5-methyl-4-oxo-4,5-dihydrothiazol-2-ylamino)bicyclo[2.2.1]heptan-2-yloxy)tetrahydro-2H-pyran-2-carboxylic acid at 5 mg/kg, po measured over 48 hrs by LC-MS/HPLC radiometric analysis; parameters: dose 5 mg/kg, route oral
[27] = Drug recovery in urine of bile duct cannulated Sprague-Dawley rat at 5 mg/kg, po measured over 48 hrs by liquid scintillation counting analysis; parameters: dose 5 mg/kg, route oral
[28] = Drug recovery in urine of Sprague-Dawley rat at 5 mg/kg, po measured after 72 hrs by liquid scintillation counting analysis; parameters: dose 5 mg/kg, route oral
[29] = Drug recovery in feces of Sprague-Dawley rat at 5 mg/kg, po measured after 72 hrs by liquid scintillation counting analysis; parameters: dose 5 mg/kg, route oral
[30] = Drug metabolism in Sprague-Dawley rat urine assessed as formation of (S)-5-isopropyl-5-methyl-2-((1R,2S,4R)-5-oxobicyclo[2.2.1]heptan-2-ylamino)thiazol-4(5H)-one at 5 mg/kg, po measured over 24 hrs by LC-MS/HPLC radiometric analysis; parameters: dose 5 mg/kg, route oral
Plasma [31] = assay: Drug level in Sprague-Dawley rat plasma at 5 mg/kg, po measured after 72 hrs by liquid scintillation counting analysis; parameters: dose 5 mg/kg, route oral
[32] = Drug metabolism in Sprague-Dawley rat urine assessed as formation of (S)-2-((1R,2S,4R,5S)-5-hydroxybicyclo[2.2.1]heptan-2-ylamino)-5-(2-hydroxypropan-2-yl)-5-methylthiazol-4(5H)-one at 5 mg/kg, po measured over 24 hrs by LC-MS/HPLC radiometric analysis; parameters: dose 5 mg/kg, route oral
[33] = Drug level in Sprague-Dawley rat feces treated with [14C]AMG221 at 2 mg/kg, po measured over 24 hrs by LC-MS/HPLC radiometric analysis; parameters: dose 2 mg/kg, route oral
[34] = Retention time of the compound in Sprague-Dawley rat feces treated with [14C]-AMG 221 at 2 mg/kg, po measured over 48 hrs by LC-MS/HPLC radiometric analysis; parameters: dose 2 mg/kg, route oral
[35] = Drug excretion in female Sprague-Dawley rat feces treated with [14C]-AMG 221 at 2 mg/kg, po measured over 24 hrs by LC-MS/HPLC radiometric analysis; parameters: dose 2 mg/kg, route oral
Rattus norvegicus [36] = assay: Total drug recovery in female Sprague-Dawley rat treated with [14C]-AMG 221 at 2 mg/kg, po measured over 48 hrs by liquid scintillation counting analysis; parameters: dose 2 mg/kg, route oral
[37] = Drug excretion in male Sprague-Dawley rat feces treated with [14C]-AMG 221 at 2 mg/kg, po measured over 24 hrs by LC-MS/HPLC radiometric analysis; parameters: dose 2 mg/kg, route oral

Drug metabolism [1]: metabolite_detected
Drug metabolism [2]: metabolite_detected
Drug metabolism (Plasma [3]): metabolite_detected
Drug metabolism [4]: metabolite_detected
Drug metabolism (Plasma [5]): metabolite_detected
Drug metabolism [6]: metabolite_detected
Drug metabolism (Plasma [7]): metabolite_detected
Drug metabolism (Plasma [8]): metabolite_detected
Drug metabolism [9]: metabolite_detected
Drug metabolism [10]: metabolite_detected
Drug recovery [11]: 64%
Drug uptake [12]: Not Active
Drug metabolism [13]: metabolite_detected
Drug metabolism [14]: metabolite_detected
Drug metabolism [15]: metabolite_detected
Drug metabolism [16]: metabolite_detected
Drug uptake (Plasma [17]): Active
Drug metabolism (Plasma [18]): metabolite_detected
Drug metabolism [19]: metabolite_detected
Drug recovery (Rattus norvegicus [20]): 81%
Drug uptake [21]: Not Active
Drug recovery [22]: 14%
Structure (SMILES): CC(C)[C@]1([14CH3])SC(N[C@H]2C[C@@H]3CC[C@H]2C3)=NC1=O

Drug recovery [23]: 10%
Drug metabolism [24]: metabolite_detected
Drug metabolism [25]: metabolite_detected
Drug metabolism [26]: metabolite_detected
Drug recovery [27]: 55%
Drug recovery [28]: 89%
Drug recovery [29]: 7%
Drug metabolism [30]: metabolite_detected
Drug uptake (Plasma [31]): Active
Drug metabolism [32]: metabolite_detected
Drug uptake [21]: Active
Structure (SMILES): CC(C)[C@]1([14CH3])SC(N[C@H]2C[C@H]3C[C@@H]2C[C@@H]3O)=NC1=O

Drug metabolism [33]: metabolite_detected
Retention_time [34]: 23.2 min
Drug excretion [35]: 6%
Drug recovery (Rattus norvegicus [36]): 6%
Drug excretion [37]: metabolite_not_detected
Structure (SMILES): CC(C)[C@]1(C)SC(N[C@H]2C[C@H]3C[C@@H]2C[C@@H]3OS(=O)(=O)O)=NC1=O
